Assay results published in US10561638B2, “Methods for treating dependence” (Biotie Therapies, Inc., priority 2007, dated 2020).
“Also recorded” adds a separate entry of the source.

Tests used:
[1] = system: spontaneous hypertensive rats; assay: SCH-23390 pretreatment study in restrained SHRs; format: in vivo; conditions: nepicastat 10 mg/kg po
Text: Male, spontaneous hypertensive rats (280-345 g; Charles River Labs, Kingston, N.Y.) were fasted overnight then anesthetized with ether. A femoral artery and femoral vein were cannulated with PE50 tubing for recording of blood pressure and administration of compounds, respectively. Animals were then placed in MAYO restrainers and their feet loosely taped to the restrainer. Heparinized saline (50 units sodium heparin/ml) was used to maintain patency of each cannula throughout the experiment. The following parameters were continuously recorded using Modular Instruments MI^2 BioReport™ software installed on an IBM personal computer: mean arterial pressure (MAP), heart rate (HR), and the change from baseline for each parameter at specified time points in the experiment.
All compounds were dissolved on the day of use. Nepicastat was dissolved in deionized water (vehicle) to a free base concentration of 1 mg/ml. Oral dosing volume for nepicastat or vehicle was 10 ml/kg. SCH-23390 was dissolved in saline (vehicle) to a free base concentration of 0.2 mg/ml. […] or saline were administered intravenously as a bolus in a volume of 1.0 ml/kg followed by 0.2 ml flush of isotonic saline.
Following surgical preparation, each animal was allowed a minimum one hour recovery period. Animals were randomly assigned to four treatment groups: vehicle (iv)/vehicle (po); vehicle (iv)/nepicastat (po); SCH-23390 (iv)/vehicle (po); or SCH-23390 (iv)/nepicastat (po). Once animals were stabilized (minimum one hour), baseline blood pressure and heart rate was determined by taking an average of each parameter over a 15 min period of time. Once baseline blood pressure and heart rate were established, animals were dosed intravenously with either SCH-23390 (200 μg/kg) or vehicle (saline, 1 ml/kg). Fifteen minutes later, animals were orally dosed with either nepicastat (10 mg/kg) or vehicle (deionized water, 10 ml/kg).
Recorded parameters were measured 15 min prior to intravenous dosing to establish baseline blood pressure and heart rate. Recorded parameters were then measured at 5, 10, and 15 min following intravenous administration of SCH-23390 or vehicle. Following oral administration of nepicastat or vehicle, recorded parameters were measured at 15, 30, 60, 90, 120, 150, 180, 210, and 240 min.
At the end of the experiment, each animal was anesthetized with halothane and euthanized via decapitation. The cortex, left ventricle (apex), and mesenteric artery were dissected out, weighed, and fixed in 0.4 M perchloric acid. Tissues were then frozen in liquid nitrogen and stored at −70° C. Biochemical analysis are performed on these tissues at a later date to determine catecholamine levels including dopamine and norepinephrine levels. Blood pressure and heart rate were analyzed separately. The change from baseline for blood pressure and heart rate were analyzed by an analysis of variance (ANOVA) with effects for treatment, time, and their interaction. This analysis was performed both for the post-iv time period and for the post-oral time period. Further analyses were performed at each time by an ANOVA with a main effect for […]. Pairwise comparisons were performed following each ANOVA by Fisher's LSD strategy with a Bonferroni correction when the overall treatment effect was not significant.
An additional analysis was performed to compare the baseline means of each treatment group by an ANOVA with a main effect for treatment and subsequent pairwise comparisons. […]

[2] = Phase I single- and multiple-dose studies in healthy men; format: in vivo, human

Q: With `Cl.NCc1c[nH]c(=S)n1[C@H]1CCc2c(F)cc(F)cc2C1` [nepicastat, (S)-5-Aminomethyl-1-(5,7-difluoro-1,2,3,4-tetrahydronaphth-2-yl)-2,3-dihydro-2-thioxo-1H-imidazole hydrochloride] as the compound, how does the “heart rate vs vehicle” value ([1]; SCH-23390 200 μg/kg iv) read?
A: did not decrease the heart rate as much as observed in vehicle treated animals

Q: What about the mean arterial pressure [1] of the same compound?
A: significant decrease (p<0.05) in mean arterial pressure

Q: And the “time post dose by which MAP decrease was significant” value [1]?
A: ≤ 30 min

Q: What about the “antihypertensive effect of nepicastat after pretreatment with SCH-23390” value ([1]; SCH-23390 iv, hydrochloride) of the same compound?
A: not attenuated; also recorded: did not significantly attenuate

Q: What about the “subjects who developed a rash” value ([2]; 200 mg for 8 days or longer) of the same compound?
A: Five of the 6 subjects

Q: What about the “tolerability, multiple-dose Phase I study” value ([2]; 5 and 40 mg, healthy men) of the same compound?
A: generally well tolerated

Q: And the “effect on mood, sleep, cognition” value ([2]; 5 or 40 mg)?
A: no significant impairment of mood, sleep, or cognition

Q: And the “tolerability, single-dose Phase I studies” value ([2]; 5 to 800 mg, healthy men)?
A: generally well tolerated

Q: And the “cardiac adverse event in one subject” value ([2]; after 6 days of dosing with 200 mg)?
A: atrial arrhythmias and intermittent right bundle branch block
